Measurements as given in publication PMC12115180 (Pharmaceuticals, 2025).
Read-outs that look alike come from different tables or passages of the source.

Experiments:
[1] = test system: patients with Central Serous Chorioretinopathy (CSC); settings: cited from earlier work
[2] = parameters: method as in PMID 17995946; settings: typical six-month course for tuberculosis; cited from earlier work
[3] = test system: oxygen-induced retinopathy rat models; test: Oxygen-induced retinopathy rat model, capillary count in histology sections; assay type: in vivo, Sprague–Dawley rat; settings: SC injection 20 mg/kg once a day P15–P19, histology P20
Excerpt: Oxygen-induced retinopathy rat models were produced according to the protocols of Yanni et al. (2010). Sprague–Dawley rat babies (and their nursing mothers) were exposed to a cycling oxygen environment (80% and 21%, about one day for each) for 15 days after starting from the day of birth (Day 0). On Day 15 (P15), the animals were moved to room air. […] On P20, all of the animals were euthanized by CO2 gas, and the retina was visualized as histology sections.

[4] = Non-GLP tox studies in rabbits, topical application; assay type: in vivo; settings: twice daily topical application of 1% rifampicin, 3-month dosing (Unpublished data)
[5] = Mouse sub-retina/sclera complex pharmacokinetics after SC injection; assay type: in vivo, C57BL/6J mice; settings: single SC injection 0.7 mg/kg
Protocol: This effective dosage and administration route was evaluated in dose escalation studies by using the mouse laser-induced CNV model. The AUC reflects the exposure to the drug after administration of a dose of the drug and is expressed in hour · ng/mg tissue. The AUC is dependent on the dose administered as well as the rate of elimination of the drug from the tissue. The AUC is directly proportional to the dose when the drug follows linear kinetics, and AUC is inversely proportional to the clearance of the drug. In 1 h, 3 h, 6 h, and 18 h after the SC injection, eyeballs were extracted. Tissue from the retina, the sclera, and the sub-retina complex were isolated and extracted. These tissues were immediately frozen in liquid nitrogen. The tissue was subjected to LC/MS analysis for quantitation. The detection limit was 0.25 ng/g tissue.

[6] = parameters: method as in earlier work; settings: cited from earlier work
[7] = Rat retina pharmacokinetics, single topical 0.25% rifampicin eye drop; assay type: in vivo, Sprague–Dawley rats; settings: male, Sprague-Dawley, topical or ocular, 15 μL of 0.25% rifampicin eye drop
Protocol: At time points of 1 h, 3 h, and 7 h after the application of the eye drops, euthanasia was performed using CO2 gas, and the retinal tissues were excised from the rats under a dissection microscope. In addition, “non-treated” negative controls were used, and the retina was excised from one rat without performing any treatments on the rat. The retina was placed in a 1.5-mL microcentrifuge tube (1 retina/tube) and was fully washed with DPBS. After completion of the washing procedures, the retinal tissues in the microcentrifuge tube were frozen in dry ice and then preserved for quantification by LC/MS analysis.

[8] = Human peak plasma exposure (package insert); assay type: in vivo; settings: 600 mg intravenous dose, calculated from package insert values
[9] = parameters: method as in WO 2023/234423 A1; settings: mouse, SC; ref WO 2023/234423 A1; cited from earlier work
[10] = Retinal delivery of rifampicin in rat after topical 0.25% eye drops; assay type: in vivo, Sprague-Dawley rats
Protocol: A single drop contained 5 μL of the above-described formulation, and the application of each drug drop was carried out at intervals of 30 min. After the eye drop application, euthanasia was performed using CO2 gas, and the retina was excised from each rat under a dissection microscope. In addition, “non-treated” negative controls were used, and the retina was excised from two rats without performing any treatments on the rats. The retina was placed in a 1.5 mL microcentrifuge tube (1 retina/tube) and was fully washed with DPBS. After completion of the washing procedures, the retinal tissues in the microcentrifuge tube were frozen in dry ice and then preserved for quantification by LC/MS analysis.

[11] = test system: HUVEC; settings: in vitro; cited from earlier work
[12] = test system: mouse laser-induced CNV model; test: Mouse laser-induced CNV model
[13] = Rabbit, average of n = 6; 0.5% 50 μL, 250 μg; cited from earlier work

Compound | Effect on CSC ([1]; 600 mg daily oral dose) | Effect on visual acuity and macular thickness in CSC ([1]; daily oral dosage of 300 mg) | Patients with hepatotoxicity [2] | Number of new capillaries on the retinal surface vs vehicle control [3] | Toxicity on repeated topical application [4] | Peak concentration in mouse sub-retinal and scleral complex [5] | Peak concentration in mouse sub-retinal and scleral complex, calculated molar [5] | Peak plasma exposure ([6]; 600 mg intravenous dose) | Peak plasma exposure ([6]; 600 mg oral dose) | Tmax [7] | Estimated serum concentration corresponding to peak plasma exposure [8] | Share of rifampicin in sub-retina and sclera complex delivered to the sub-retina [9] | Drug Amount Detected in Retina ([10]; topical 0.25% 3 drops (15 μL, 37.5 μg)) | Drug Amount Detected in Retina ([10]; topical 0.25% 10 drops (50 μL, 125 μg)) | Concentration required for statistically significant inhibition of HUVEC tube formation and proliferation [11] | Inhibition of neovascularization in CNV model ([12]; SC injection 0.7 mg/kg once daily, 7 days after laser) | Neovascularization inhibition level compared with intravitreal aflibercept ([12]; SC injections at doses exceeding 0.7 mg/kg) | Minimum effective dose for inhibiting neovascularization in subretinal tissues ([12]; SC, dose escalation studies) | Effective dosage in CNV model, times less than that of bacterial inhibition ([12]; vs 20 mg/kg effective systemic dosage for bacterial infection) | Drug Amount Detected in Retina [13]
CO[C@H]1/C=C/O[C@@]2(C)Oc3c(C)c(O)c4c(O)c(c(/C=N/N5CCN(C)CC5)c(O)c4c3C2=O)NC(=O)/C(C)=C\C=C\[C@H](C)[C@H](O)[C@@H](C)[C@@H](O)[C@@H](C)[C@H](OC(C)=O)[C@@H]1C [Rifampicin] | improvements in CSC | improved visual acuity and macular thickness | up to 28% | fewer than that in the control group | no toxicity | approximately 0.03 ng/mg tissue weight | roughly 0.04 µM | 9 to 17 µg/mL | 4 to 32 µg/mL | ~1 h | 12 to 23 µM | approximately 70% | 1280 ng/ 1 g of retinal tissues (Rat) SE: 394.0348 | 2939 ng/ 1 g of retinal tissues (Rat) SE: 50.54 | approximately 30 µM | significantly inhibited neovascularization | equivalent to that achieved with intravitreal injection of aflibercept | 0.7 mg/kg | approximately 30 times | 
C[C@@H]1C[C@H]2[C@@H]3CCC4=CC(=O)C=C[C@]4(C)[C@@]3(F)[C@@H](O)C[C@]2(C)[C@@]1(O)C(=O)CO [Dexamethasone] |  |  |  |  |  |  |  |  |  |  |  |  |  |  |  |  |  |  |  | 33 ng/ 1 g of retinal tissues (Rabbit, average of n = 6)
